Where “and” joins values, the source holds several entries; their conditions need not be identical. Identical values can stand only once.
Molecular target: HDAC6 (Homo sapiens, UniProt Q9UBN7)
Assay: HDAC6 enzyme inhibition
Type: biochemical
Conditions: read-out: HDAC inhibition IC50 HDAC6
Experimental: The inhibitory capacity of DDI199 on HDACs was studied as previously described. The capacity of DDI199 to inhibit MAOs was studied by mimicking the reaction occurring in cells. Briefly, inhibitor solution containing 10 µM of DDI199 or reference compound was incubated for 30 minutes at 37 °C together with the enzyme solution, containing either recombinant hMAO-A (Sigma-Aldrich) at 0.5 U/mL or hMAO-B (Sigma-Aldrich) at 1.5 U/mL. 200 U/mL horseradish peroxidase (Sigma-Aldrich), 20 mM Ampliflu Red (Sigma-Aldrich) and 100 mM tyramine hydrochloride (Sigma-Aldrich) were then added and absorbance at 570 nm was measured every 5 minutes for 30 minutes. Percentage of inhibition was estimated from these values.

Chain of HDAC6 (Q9UBN7 whole entry): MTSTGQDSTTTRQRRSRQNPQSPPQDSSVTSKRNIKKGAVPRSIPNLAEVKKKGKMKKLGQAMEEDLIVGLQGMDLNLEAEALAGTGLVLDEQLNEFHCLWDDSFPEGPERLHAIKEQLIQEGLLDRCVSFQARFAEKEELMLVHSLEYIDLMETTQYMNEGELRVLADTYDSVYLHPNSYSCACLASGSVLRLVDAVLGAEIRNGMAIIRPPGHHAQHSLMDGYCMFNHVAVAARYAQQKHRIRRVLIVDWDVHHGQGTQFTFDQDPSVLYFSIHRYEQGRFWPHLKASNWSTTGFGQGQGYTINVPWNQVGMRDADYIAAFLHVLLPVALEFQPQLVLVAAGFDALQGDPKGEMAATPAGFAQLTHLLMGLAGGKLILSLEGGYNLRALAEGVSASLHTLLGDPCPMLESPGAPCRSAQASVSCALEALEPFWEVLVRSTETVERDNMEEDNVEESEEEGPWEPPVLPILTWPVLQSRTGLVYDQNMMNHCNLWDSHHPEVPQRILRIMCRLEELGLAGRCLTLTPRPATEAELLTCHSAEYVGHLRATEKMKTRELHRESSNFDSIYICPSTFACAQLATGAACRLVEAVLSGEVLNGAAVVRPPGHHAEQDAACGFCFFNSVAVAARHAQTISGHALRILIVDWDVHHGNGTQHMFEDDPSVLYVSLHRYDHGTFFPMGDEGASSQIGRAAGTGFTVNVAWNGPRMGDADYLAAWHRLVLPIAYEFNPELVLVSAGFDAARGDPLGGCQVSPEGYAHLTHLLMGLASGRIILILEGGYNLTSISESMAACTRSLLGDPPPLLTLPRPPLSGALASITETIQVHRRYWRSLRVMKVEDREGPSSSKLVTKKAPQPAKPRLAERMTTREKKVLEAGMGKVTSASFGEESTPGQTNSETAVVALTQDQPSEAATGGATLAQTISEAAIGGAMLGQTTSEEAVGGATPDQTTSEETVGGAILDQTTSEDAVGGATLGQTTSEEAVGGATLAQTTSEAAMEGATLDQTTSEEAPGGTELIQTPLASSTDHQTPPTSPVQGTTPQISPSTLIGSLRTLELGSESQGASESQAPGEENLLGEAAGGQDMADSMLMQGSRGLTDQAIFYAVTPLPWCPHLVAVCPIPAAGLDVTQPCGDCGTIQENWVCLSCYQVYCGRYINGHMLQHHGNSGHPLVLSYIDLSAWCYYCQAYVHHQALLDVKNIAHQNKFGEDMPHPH

How did the IC50 turn out when `C#CCN(Cc1cc2cc(OCCCN3CCCCC3)ccc2n1S(=O)(=O)c1ccccc1)C(=O)CCCCCCC(=O)NO` [DDI199] was run?
The IC50 was 95 nM and 90 nM.

From paper PMC11971462, “Generation and validation of a novel multitarget small molecule in glioblastoma” (Cell Death & Disease, 2025)
